Test results published in publication PMC11475408, “All‐Inorganic Polyoxometalates Act as Superchaotropic Membrane Carriers” (Advanced Materials (Deerfield Beach, Fla.), 2023).

Tests used:
[1] = Hydrolysis/stability of POMs in buffer by NMR
Experimental: First, their long‐term (24 h and longer) fate in aqueous solution (slightly acidic and neutral) was investigated by applying the active NMR nuclei in their composition (Table S9 and Figures S24–S37, see the Supporting Information for details).
NMR-spectroscopic characterization of identity and stability
NMR spectroscopy for all POMs tested was performed under experimental conditions.

protamine = test: Supramolecular tandem assay of protamine hydrolysis (CX4/LCG); format: biochemical; details: time scale of transport experiments (10 min); 0.5 µM protamine, LCG/CX4 reporter, 10 mM Hepes pH 7.5; POM 0-500 µM
Experimental: 5. Hydrolytic activity of [(PZrW11)2]8−
We devised a supramolecular tandem enzyme assay[25-29] to check to which degree [(PZrW11)2]8− promotes peptide fragmentation, which has been reported to occur on a time scale of days at 60 °C.[30-31] Supramolecular tandem assay is a technique that allows real-time continuous monitoring of enzymatic activity by following a change in the concentration of a substrate or product as it competitively displaces a fluorescent reporter dye from the cavity of a macrocyclic host.
The assay therefore relies on the differential binding of the macrocycle with the fluorescent dye, the enzymatic substrate, and the corresponding product.
We selected p-sulfonatocalix[4]arene (CX4) as macrocyclic host and lucigenin (LCG) as fluorescent dye, since protamine […]
conversion can be directly monitored through a decrease in fluorescence. Trypsin, which is an endopeptidase that hydrolyzes peptide bonds on the C -terminal side of the amino acid arginine ,[32-33] was used as an example, for comparison.
Only minor hydrolysis (<10%) of protamine by the [(PZrW11)2]8− was observed on the time scale relevant for the transport […]

[2] = CF transport assay in EYPC⊃CF vesicles (carrier activity); format: biochemical; parameters: key to Carrier activity: ‐ – ‐: No detectable activity at pH 5.5 and 7.4
Excerpt: The capability of POMs to act as membrane carriers was explored first in large unilamellar vesicles (LUVs) loaded with carboxyfluorescein (CF).^[ [54], [55] ^] We selected […] representative cationic peptides, heptaarginine (heptaArg), heptalysine (heptaLys), protamine, and polyarginine (polyArg), as test cargos. Inside the LUVs, the CF dye was encapsulated at self‐quenching concentrations. With a suitable carrier, heptaArg can be taken up into the vesicles, bind with entrapped CF, and shuttle back to the exterior, diluting the previously quenched CF, and thereby restoring its fluorescence (Figure 1c). In the time‐resolved fluorescence experiments (Figure 2a), to test whether a particular POM acts as molecular carrier, the CF emission was continuously monitored during the addition of the inorganic carrier (t = 60 s) and after injection of the impermeable selected cargo (t = 120 s). Toward the end of the experiment (t = 600 s), the surfactant Triton X‐100 was added to release all the entrapped CF and allow normalization of the intensity data.
A thin lipid film was prepared by evaporating a lipid solution of EYPC (egg yolk phosphatidylcholine, 25 mg) in CHCl3 (1 mL) with a stream of nitrogen and then dried in vacuo overnight. The dry film was rehydrated with 1 mL buffer (50 mM CF, 10 mM Hepes, pH 7.4 or 50 mM CF, 10 mM Tris, pH 7.4) for 30 min at room temperature, subjected to freeze–thaw cycles (7 times) and extrusions (15 times) through a polycarbonate membrane (pore size 100 nm). Extravesicular components were removed by size exclusion chromatography (NAP‐25 column Sephadex G‐25 DNA grade) with 10 mM Hepes, 107 mM NaCl, pH 7.4, or 10 mM Hepes, 107 mM NaCl, pH 7.4. Phospholipid concentration was calculated by the Stewart assay.^[ [81] ^]
Acidic vesicles were prepared analogously but the rehydration and elution buffer were 50 mM CF, 10 mM Mes, pH 5.5 and 10 mM Mes, 107 mM NaCl, pH 5.5. respectively.
Vesicles stock solutions (5–10 µL) were diluted with the corresponding buffer in a disposable plastic cuvette and gently stirred (total volume 2000 µL, final lipid concentration 13 µM). Carboxyfluorescein fluorescence was monitored at λ em = 517 nm (λ ex = 492 nm) as a function of time after addition of POMs at 60 s, analyte at 120 s and Triton X‐100 (24 µL 1.2% wt/vol) at 600 s to lyse the vesicles, for calibration. Fluorescence intensities were normalized to fractional emission as (1) It=It−I0/I∞−I0 where I 0 = I t before POM addition and […] after lysis. For Hill analysis, I t before lysis was defined as transport activity, Y, and plotted against POM concentration, c, and fitted to the Hill Equation (2), to afford the activity in absence of POM, Y 0, the maximal activity, Y max, the concentration needed to achieve 50% of maximal activity, EC 50, and the Hill coefficient, n (2) Y=Y0+Ymax−Y0/1+EC50/c^n
In the transport measurements, where different carriers (POMs) are tested with the same cargo, the activator efficiency (E) is determined by their capacity to transport the impermeable cargo to the intravesicular region and is characterized by Y max, its maximal activity, and EC 50, the effective activator concentration. An ideal carrier reaches high Y max at low EC 50. To count both factors, the activator efficiency is defined as (3) E=YmaxpEC50/f were pEC 50 is the negative logarithm of the EC 50, and f a scaling factor, which was set to 20.6 to calibrate the highest (previously known) activation efficiency, E, as 10.^[ [55] ^]

[3] = 3 mM POM, 10 mM Hepes pH 7.5, 31P NMR integration

% parent anion, Hepes pH 7.5 after 1 day [1, 3]: 99%
% parent anion, Hepes pH 7.5 freshly prepared [1, 3]: 99%
Hydrolysis/stability pH 7.5 ([1]; 10 mM Hepes or Tris, 107 mM NaCl, pH 7.4, NMR, long-term (24 h and longer)): Stable
Stability at pH 7.5 by NMR (in words) ([1]; Hepes or Tris-HCl pH 7.5, 27Al, 31P or 183W NMR, fresh and aged 1-3 days): remain unchanged
Substance: (Et2NH2)8[{α‐P^VW^VI 11O39Zr^IV(µ‐OH)(H2O)}2]·7H2O [[(PZrW11)2]^8‒]
Hydrolysis of protamine by the POM (protamine): < 10%
Carrier activity ([2]; EYPC vesicles, pH 5.5 and 7.4, cargos heptaArg, protamine, polyArg ([AlMo6]: heptaArg and protamine only)): ‐ – ‐ ^k)
Transport activity (in words) ([2]; EYPC⊃CF vesicles, neutral pH, carrier then cargo): neither transport activity nor membrane disruption was observed
